Assays:
[1] = test system: Human dermal fibroblasts (HDF 1616 line); assay: Human iPS cell colony formation, 4 genes introduced, SB202190 added Day 0 or day 5; format: cell-based
Experimental: Human dermal fibroblasts (HDF 1616 line) were treated using a lentivirus (pLenti6/UbC-Slc7a1) according to the method described by Takahashi, K. et al. in Cell, 131: 861-872 (2007), to express the mouse ecotropic virus receptor Slc7a1 gene. These cells were seeded to a 6-well culture plate (Falcon), previously coated with 0.1% gelatin (Sigma), at 1.0×10^5 cells per well. The following day, the four human genes were introduced using a retrovirus according to the method described by Takahashi, K. et al. in Cell, 131: 861-872 (2007). On day 4 after the infection, 2.0×10^5 cells were seeded to a 100 mm dish, containing previously seeded feeder cells. To determine the effect of a p38 inhibitor, SB202190 was added simultaneously with the infection (Day 0), or on day 5 after the infection, and the efficiency of iPS cell establishment was compared. On day 16 after the infection, iPS cell colonies were counted. The results are shown in the upper panel in FIG. 3. In the context of introduction of the four genes (Oct3/4, Sox2, Klf4, C-Myc), the number of human iPS cell colonies increased with the addition of SB202190 in the initial stage after the infection, compared with the addition of DMSO for control and the addition of SB202190 on day 5 after the infection. The four genes were introduced using a retrovirus in the same manner, but at a different cell density (3×10^4 cells/10 cm dish), with simultaneous addition of SB202190 (Day 0). SB202190 was added also on day 5 after the infection, and the efficiency of iPS cell establishment was compared. On day 16 after the infection, colony sizes were measured. The results are shown in the lower panel in FIG. 3. Even when the cell density was changed, the number of iPS cell colonies increased with the addition of SB202190 along with the four factors (Oct3/4, Sox2, Klf4, C-Myc), compared with the addition of DMSO.

[2] = test system: Human dermal fibroblasts (Tig109 line); assay: Human iPS cell colony formation, 3 genes introduced, various p38 inhibitors; format: cell-based; settings: 10 μM inhibitor
Experimental: Human dermal fibroblasts (Tig109 line) were treated using a lentivirus (pLenti6/UbC-Slc7a1) according to the method described by Takahashi, K. et al. in Cell, 131: 861-872 (2007), to express the mouse ecotropic virus receptor Slc7a1 gene. These cells (2×10^5 cells/10 cm dish) were transfected with the four genes using a retrovirus according to the method described by Takahashi, K. et al. in Cell, 131: 861-872 (2007); each compound was added per the schedule shown below. • 1. Oct3/4, Sox2, Klf4, c-Myc, each derived from human, saline • 2. Oct3/4, Sox2, Klf4, c-Myc, each derived from human, DMSO (Day 5-35) • 3. Oct3/4, Sox2, Klf4, c-Myc, each derived from human, SB202190 10 μM (Day 5-20) • 4. Oct3/4, Sox2, Klf4, c-Myc, each derived from human, SB239063 10 μM (Day 5-20) • 5. Oct3/4, Sox2, Klf4, c-Myc, each derived from human, SB202190 10 μM (Day 21-35) • 6. Oct3/4, Sox2, Klf4, c-Myc, each derived from human, SB239063 10 μM (Day 21-35) • 7. Oct3/4, Sox2, Klf4, c-Myc, each derived from human, SB202190 10 μM (Day 5-35) • 8. Oct3/4, Sox2, Klf4, c-Myc, each derived from human, SB239063 10 μM (Day 5-35) Subsequently, three genes (Oct3/4, Sox2, Klf4) were introduced using a retrovirus in the same manner, and the efficiency of iPS cell establishment was compared. • 1. Oct3/4, Sox2, Klf4, each derived from human, saline • 2. Oct3/4, Sox2, Klf4, each derived from human, DMSO (Day 5-35) • 3. […]

## Oc1ccc(-c2nc(-c3ccc(F)cc3)c(-c3ccncc3)[nH]2)cc1 [SB202190, 4-(4-fluorophenyl)-2-(4-hydroxyphenyl)-5-(4-pyridyl)imidazole]
[1]; 2.0×10^5 cells/100 mm dish, added in the initial stage (Day 0), compared with DMSO and addition on day 5
  number of human iPS cell colonies on day 16 after the infection: increased
[1]; 3×10^4 cells/10 cm dish
  number of iPS cell colonies on day 16 compared with DMSO: increased
[1]; lower cell density 3×10^4 cells/10 cm dish
  efficiency of iPS cell establishment, added on day 5 versus simultaneously with the infection: higher
[2]
  number of iPS cell colonies on day 40 after the infection compared with physiological saline and DMSO: increased remarkably
  number of positive colonies on day 32 after the infection compared with physiological saline and DMSO: increased

From patent US9447408B2, “Method of efficiently establishing induced pluripotent stem cells” (Kyoto University, priority 2010, dated 2016)
